In the supplement of paper PMC10331698:
± gives the standard deviation of the averaged measurements.

How the values were obtained:
Experiment in all cases: level (log10 ratio to DMSO vehicle control); higher = higher biomarker level / cell amount than vehicle control
Settings in all cases: in DMSO
[1] = compound: O=S(=O)(Cl)C(F)(F)C(F)(F)C(F)(F)C(F)(F)C(F)(F)C(F)(F)C(F)(F)C(F)(F)F [Perfluoro-1-octanesulfonyl chloride]
Protocol: (§1)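 BioMAP Diversity Plus panel of 12 human primary cell co-culture systems (3C, 4H, LPS, SAg, BT, BF4T, BE3C, CASM3C, HDF3CGF, KF3CT, MyoF, Mphg). Compounds were added 1 h before stimulation and left for 24 h (MyoF 48 h; BT 72 h for soluble read-outs or 6 d for IgG). Biomarkers were read by ELISA, cytotoxicity by SRB, PBMC viability and proliferation by Alamar Blue. Each well value was divided by the mean of 8 DMSO control wells on the same plate and log10 transformed; duplicate blinded samples were tested at 4 concentrations.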

[2] = compound: O=S(=O)(O)C(F)(F)C(F)(F)C(F)(F)C(F)(F)C(F)(F)C(F)(F)C(F)(F)C(F)(F)C(F)(F)C(F)(F)F [Sodium perfluorodecanesulfonate]
Protocol: as §1

[3] = compound: FC(F)(F)C(F)(F)C(F)(F)C(F)(F)C(F)(F)C(F)(F)CC1CO1 [3-(Perfluorohexyl)-1,2-epoxypropane]
Protocol: as §1

[4] = compound: FC(F)(F)C(F)(F)CNCC(F)(F)C(F)(F)F [Bis(1H,1H-perfluoropropyl)amine]
Protocol: as §1

[5] = compound: NS(=O)(=O)C(F)(F)C(F)(F)C(F)(F)C(F)(F)C(F)(F)C(F)(F)F [Perfluorohexanesulfonamide]
Protocol: as §1

[6] = compound: C=C(C)C(=O)OCCC(F)(F)C(F)(F)C(F)(F)C(F)(F)C(F)(F)C(F)(F)F [6:2 Fluorotelomer methacrylate]
Protocol: as §1

Test System | level (log10) ([1]; 6700 nM) | level (log10) ([1]; 20000 nM) | level (log10) ([1]; 60000 nM) | level (log10) ([2]; 1500 nM) | level (log10) ([2]; 4400 nM) | level (log10) ([2]; 13000 nM) | level (log10) ([2]; 40000 nM) | level (log10) ([3]; 6700 nM) | level (log10) ([3]; 20000 nM) | level (log10) ([3]; 60000 nM) | level (log10) ([4]; 6700 nM) | level (log10) ([4]; 20000 nM) | level (log10) ([4]; 60000 nM) | level (log10) ([5]; 6700 nM) | level (log10) ([5]; 20000 nM) | level (log10) ([5]; 60000 nM) | level (log10) ([6]; 6700 nM) | level (log10) ([6]; 20000 nM) | level (log10) ([6]; 60000 nM)
MyoF:SRB | 0.005 ± 0.014 | -0.009 | -0.0695 ± 0.0092 | 0.0205 ± 0.016 | 0.029 ± 0.0042 | 0.0115 ± 0.012 | -0.018 ± 0.0085 | -0.007 ± 0.0057 | -0.005 ± 0.0057 | 0.0015 ± 0.011 | 0 ± 0.0057 | -0.011 ± 0.0057 | -0.011 ± 0.0042 | -0.0185 ± 0.0035 | -0.054 ± 0.033 | -0.105 ± 0.0092 | -0.0025 ± 0.0092 | -0.0015 ± 0.005 | 0.0085 ± 0.012
MyoF:PAI-I | -0.018 ± 0.016 | -0.0325 ± 0.016 | -0.0415 ± 0.013 | 0.019 ± 0.02 | 0.0335 ± 0.029 | 0.0505 ± 0.0035 | 0.063 ± 0.0085 | 0.011 ± 0.0099 | -0.0035 ± 0.00071 | 0.0055 ± 0.0021 | -0.005 ± 0.011 | 0.007 ± 0.013 | 0.011 ± 0.0014 | 0.021 ± 0.016 | 0.0285 ± 0.021 | 0.0575 ± 0.0078 | -0.0165 ± 0.015 | -0.016 ± 0.0028 | -0.0165 ± 0.005
KF3CT:CXCL10/IP-10 | -0.0165 ± 0.00071 | -0.0455 ± 0.00071 | -0.16 ± 0.0099 | 0 ± 0.023 | -0.021 ± 0.027 | -0.015 ± 0.025 | -0.0225 ± 0.0078 | 0.0285 ± 0.00071 | 0.0305 ± 0.0035 | 0.0295 ± 0.0021 | -0.0045 ± 0.0078 | -0.0025 ± 0.0035 | 0.0085 ± 0.00071 | -0.012 ± 0.013 | -0.019 ± 0.014 | -0.0875 ± 0.0035 | 0.019 ± 0.0057 | 0.0245 ± 0.013 | 0.031 ± 0.0014
4H:CCL26/Eotaxin-3 | 0.012 ± 0.014 | -0.066 ± 0.0071 | -0.0725 ± 0.043 | -0.038 ± 0.0085 | -0.052 ± 0.0014 | -0.0885 ± 0.037 | -0.129 ± 0.063 | -0.001 ± 0.011 | -0.001 ± 0.0028 | 0.005 ± 0.0057 | 0.06 ± 0.045 | 0.0245 ± 0.059 | 0.041 ± 0.064 | -0.0015 ± 0.005 | -0.0285 ± 0.028 | -0.1 ± 0.0071 | 0.016 | 0.006 ± 0.048 | -0.009 ± 0.05
LPS:CD40 | -0.0175 ± 0.081 | -0.0145 ± 0.042 | -0.027 ± 0.0042 | -0.017 ± 0.024 | -0.028 ± 0.0099 | -0.0525 ± 0.0078 | -0.242 ± 0.026 | -0.0115 ± 0.012 | 0.01 ± 0.014 | -0.0045 ± 0.015 | 0.041 ± 0.041 | -0.0115 ± 0.047 | -0.0155 ± 0.025 | 0.005 ± 0.068 | -0.045 ± 0.09 | -0.191 ± 0.04 | -0.022 ± 0.045 | -0.04 ± 0.024 | -0.0335 ± 0.11
CASM3C:CCL2/MCP-1 | -0.0025 ± 0.0078 | -0.0115 ± 0.0092 | 0.031 ± 0.044 | -0.022 ± 0.023 | -0.024 ± 0.0028 | 0.0115 ± 0.026 | 0.0095 ± 0.0064 | 0.0035 ± 0.022 | 0 ± 0.031 | 0.034 ± 0.028 | -0.0065 ± 0.013 | -0.0205 ± 0.015 | -0.0055 ± 0.04 | -0.006 ± 0.0014 | 0.0015 ± 0.012 | 0.028 ± 0.017 | -0.005 ± 0.0028 | -0.011 ± 0.0014 | -0.0015 ± 0.021
CASM3C:CD141/Thrombomodulin | -0.019 ± 0.011 | 0.012 ± 0.017 | 0.03 ± 0.0071 | 0.0625 ± 0.015 | 0.034 ± 0.0028 | 0.03 ± 0.038 | 0.166 ± 0.0092 | 0.011 ± 0.011 | 0.005 ± 0.013 | 0.0225 ± 0.029 | 0.019 ± 0.011 | 0.007 ± 0.0099 | 0.001 ± 0.02 | -0.022 ± 0.025 | -0.0305 ± 0.021 | 0.016 ± 0.014 | 0.016 ± 0.071 | 0.021 ± 0.067 | 0.03 ± 0.081
CASM3C:CD106/VCAM-1 | -0.0395 ± 0.0092 | -0.0455 ± 0.015 | -0.0235 ± 0.032 | -0.043 ± 0.037 | -0.0795 ± 0.026 | -0.158 ± 0.037 | -0.153 ± 0.045 | -0.024 ± 0.0099 | -0.0175 ± 0.022 | -0.01 ± 0.034 | -0.06 ± 0.024 | -0.0545 ± 0.026 | -0.0105 ± 0.053 | -0.014 ± 0.016 | -0.0285 ± 0.005 | -0.0235 ± 0.0064 | -0.0005 ± 0.011 | -0.005 ± 0.016 | -0.005 ± 0.0042
LPS:CCL2/MCP-1 | -0.0075 ± 0.0078 | 0.025 ± 0.021 | 0.0205 ± 0.029 | -0.0165 ± 0.011 | -0.041 ± 0.0085 | -0.0235 ± 0.033 | -0.0655 ± 0.077 | -0.012 ± 0.011 | -0.0055 ± 0.019 | 0.0025 ± 0.0078 | -0.0105 ± 0.00071 | -0.006 ± 0.0085 | 0.0015 ± 0.03 | -0.011 ± 0.0028 | -0.024 ± 0.018 | -0.102 ± 0.034 | -0.007 ± 0.05 | -0.014 ± 0.034 | -0.043
3C:CD142/Tissue Factor | -0.035 ± 0.027 | 0.015 ± 0.013 | 0.0705 ± 0.063 | -0.0005 ± 0.04 | -0.0075 ± 0.015 | 0.0205 ± 0.025 | -0.0695 ± 0.0078 | -0.042 ± 0.027 | -0.05 ± 0.028 | -0.0195 ± 0.029 | 0.038 ± 0.05 | -0.0105 ± 0.094 | 0.0165 ± 0.11 | 0.0005 ± 0.0078 | -0.0285 ± 0.032 | -0.0365 ± 0.029 | 0.0295 ± 0.0021 | 0.034 ± 0.013 | 0.021 ± 0.054
MyoF:Collagen I | -0.009 | -0.0185 ± 0.00071 | -0.0665 ± 0.00071 | -0.003 ± 0.02 | -0.006 ± 0.0028 | -0.003 ± 0.0057 | -0.0415 ± 0.00071 | -0.011 ± 0.018 | -0.003 ± 0.0028 | 0.007 ± 0.02 | -0.005 ± 0.0057 | -0.014 ± 0.0099 | 0.0035 ± 0.015 | 0.024 ± 0.013 | 0.0515 ± 0.013 | 0.0495 ± 0.022 | -0.0085 ± 0.0092 | -0.0095 ± 0.00071 | -0.009 ± 0.0099
CASM3C:HLA-DR | -0.022 ± 0.014 | -0.053 ± 0.017 | -0.04 ± 0.064 | 0.0555 ± 0.047 | 0.007 ± 0.024 | 0.0505 ± 0.036 | 0.0855 ± 0.0035 | -0.016 ± 0.027 | -0.033 ± 0.0071 | 0.009 ± 0.057 | -0.013 ± 0.0057 | -0.0105 ± 0.0021 | 0.015 ± 0.058 | 0.002 ± 0.03 | 0 ± 0.0071 | 0.005 ± 0.0042 | -0.008 ± 0.042 | -0.0015 ± 0.015 | 0.0155 ± 0.011
lMphg:sIL-10 | 0.0345 ± 0.054 | -0.071 ± 0.1 | -0.341 ± 0.033 | -0.0235 ± 0.00071 | -0.122 ± 0.019 | -0.0595 ± 0.00071 | -0.269 ± 0.06 | -0.0195 ± 0.029 | -0.057 ± 0.0085 | -0.059 ± 0.051 | -0.0755 ± 0.028 | 0.037 ± 0.024 | -0.059 ± 0.034 | 0 ± 0.0071 | -0.142 ± 0.017 | -0.5835 ± 0.00071 | -0.01 ± 0.089 | -0.0545 ± 0.035 | 0.0135 ± 0.0035
3C:CD141/Thrombomodulin | 0.012 ± 0.025 | 0.0215 ± 0.016 | 0.186 ± 0.0021 | -0.015 ± 0.031 | -0.052 ± 0.013 | -0.0325 ± 0.019 | -0.0565 ± 0.0035 | -0.0025 ± 0.028 | -0.0095 ± 0.00071 | -0.0075 ± 0.0035 | 0.0205 ± 0.043 | 0.0255 ± 0.04 | 0.046 ± 0.058 | -0.04 ± 0.023 | -0.045 ± 0.02 | 0.0135 ± 0.033 | -0.0155 ± 0.042 | -0.014 ± 0.048 | -0.072 ± 0.014
MyoF:bFGF | -0.007 ± 0.014 | -0.039 ± 0.0014 | -0.029 ± 0.034 | 0.0025 ± 0.005 | 0.033 | 0.015 ± 0.0057 | 0.023 ± 0.011 | 0.02 ± 0.02 | 0.02 ± 0.018 | 0.014 ± 0.0057 | -0.0065 ± 0.013 | -0.0045 ± 0.005 | 0.013 ± 0.025 | -0.0005 ± 0.00071 | -0.001 ± 0.0042 | -0.004 ± 0.023 | -0.0025 ± 0.0064 | -0.0115 ± 0.018 | -0.0085 ± 0.011
